Results published in US10358500B2, “Humanized antibodies that bind LGR5” (Bionomics Inc., priority 2014, dated 2019).

Key:
[1] = system: LGR5; experiment: LGR5 expression in treated CRC cell lines by flow cytometry; assay type: cell-based; details: 1 um, 72 hrs
Protocol: A panel of CRC cell lines including DLD1, HCT116, LS174t, LoVo, SW48, SW480 and SW620 were treated with a PI3K/mTOR dual inhibitor (NVP) or 2 different cytotoxic agents including SN38 (active metabolite of Irinotecan) or 5FU (5 fluorouracil). Cells were treated with the above agents at 1 um and were harvested after 72 hrs. Cells were then stained with anti-LGR5 Mab conjugated to Alexa Fluor647 and the data were analyzed by flow cytometry using a FACScalibur.

[2] = system: LGR5; experiment: LGR5 expression in treated pancreatic cell lines by flow cytometry; assay type: cell-based
Protocol: In addition to CRC cell lines to further expand the above findings, expression of LGR5 was investigated in a series of pancreatic cell lines treated with relevant standard of care including nab-paclitaxel, gemcitabine and taxol and also small molecule inhibitors targeting most relevant pathways in pancreatic cancer such as inhibitors of PI3K, MEK and GSK3β. The pancreatic cell lines that were tested include: AsPc1, HPAFII, PANC1, BxPC3, CFPAC, PANC10.05, Capan2 and SW1990.

[3] = system: PANC1 cancer stem cells; experiment: limiting dilution re-implant of treated PANC1 tumors; assay type: in vivo, mice; details: gemcitabine alone
Source text: Tumors cells from these treatment groups were harvested, dissociated, pooled and re-implanted in a limiting dilution assay (500, 1500, 4500 or 13500 cells/animal) into a new cohort of CB.17 SCID mice and allowed to grow with no treatment.

[4] = system: AsPC-1 cancer stem cells; experiment: limiting dilution experiment, AsPC-1 tumors; assay type: in vivo, mice; details: day 40 post treatment, gemcitabine single agent

## O=c1[nH]cc(F)c(=O)[nH]1 [5FU, 5 fluorouracil]
[1]; any of the CRC lines (DLD1, HCT116, LS174t, LoVo, SW48, SW480, SW620)
  LGR5 expression by flow cytometry: did not induce LGR5 expression

## CC(=O)O[C@H]1C(=O)[C@@]2(C)[C@H]([C@H](OC(=O)c3ccccc3)[C@]3(O)C[C@H](OC(=O)[C@H](O)[C@@H](NC(=O)c4ccccc4)c4ccccc4)C(C)=C1C3(C)C)[C@]1(OC(C)=O)CO[C@@H]1C[C@@H]2O [taxol]
[2]; HPAFII
  LGR5 expression by flow cytometry: increased LGR5 expression

## CCc1c2c(nc3ccc(O)cc13)-c1cc3c(c(=O)n1C2)COC(=O)[C@]3(O)CC [SN38]
[1]; HCT116, LS174t, SW48, SW480 and especially SW620 cells
  LGR5 expression by flow cytometry: promoted LGR5 expression

## Nc1ccn([C@@H]2O[C@H](CO)[C@@H](O)C2(F)F)c(=O)n1 [gemcitabine, reference compound]
[3]; PANC1, 4500 cells
  frequency of engraftment: 40%
[3]; PANC1, 13500 cells
  frequency of engraftment: 100%
[2]; PANC1
  LGR5 expression by flow cytometry: upregulates LGR5
[4]; AsPC-1, 4500 cells
  percentage of tumor bearing mice: 40%
[4]; AsPC-1, 13500 cells
  percentage of tumor bearing mice: 80%
